Data from patent US10160867B2, “Benzoxaborole-containing coating resistant to cellulose-supportable fungus” (THE PENN STATE RESEARCH FOUNDATION, priority 2015, dated 2018).
≈ marks a conversion by molar mass, not a printed value. Like-named read-outs stand apart in the source and are kept apart here.

Columns and labels:
Penicillium purpurogenum = assay: 3 day MIC, broth microdilution in 25% PDB; format: cell-based; details: for MIC: 72 h, read-out: 3 day MIC
Method: (§1) Stock solutions (concentrations of between 4,000 μg/mL to 10,000 μg/mL; stored at −18° C.) of the above antifungals were prepared in dimethyl sulfoxide (DMSO). The stock solutions were further diluted into sterile 25% potato dextrose broth (PDB) so that the diluted solutions could be used for the antifungal susceptibility studies. This way, a typical microdilution study would reach a final ratio of about 0.5-2% v/v of DMSO in 25% PDB.
(§2) Spore inocula were prepared in sterile distilled water with 0.1% Tween® 20 (a polysorbate surfactant), and a hemocytometer was used to determine the spore density. Typically, the spore inoculum was prepared fresh prior to each study, and the inoculum was appropriately diluted to a final concentration of 0.4-1×10^5 spores/mL or colony-forming unit (CFU)/mL in each study. The spore suspension can be stored in a refrigerator at 4° C. for up to one week.
(§3) The studies were performed in flat bottom, 96-well microtiter plates (Greiner Bio-One, Frickenhausen, Germany).
(§4) Plates sealed with clear polyester film (VWR, Radnor, Pa.) were incubated at a temperature of about 25° C. The progress of fungal growth was monitored at 48 hours and 72 hours.

[1] = system: Penicillium brevicompactum; assay: 3 day MIC, broth microdilution in 25% PDB; format: cell-based; details: for MIC: 72 h, read-out: 3 day MIC
Method: as §1, §2, §3, §4

Stachybotrys chartarum [2] = assay: 3 day MIC, broth microdilution in 25% PDB; format: cell-based; details: for MIC: 72 h, read-out: 3 day MIC
Method: as §1, §2, §3, §4

Penicillium corylophilum = assay: 3 day MIC, broth microdilution in 25% PDB; format: cell-based; details: for MIC: 72 h, read-out: 3 day MIC
Method: as §1, §2, §3, §4

Penicillium chrysogenum [3] = assay: 3 day MIC, broth microdilution in 25% PDB; format: cell-based; details: for MIC: 72 h, read-out: 3 day MIC
Method: as §1, §2, §3, §4

Alternaria alternata [4] = assay: 3 day MIC, broth microdilution in 25% PDB; format: cell-based; details: for MIC: 72 h, read-out: 3 day MIC
Method: as §1, §2, §3, §4

[5] = commercially available fungicidal agents; cited from earlier work
Stachybotrys chartarum [6] = assay: Fungus resistance test after painting over fungal growth (defacement rating); format: cell-based; details: painted over fungal growth, +100 μg/mL in Olympic Home paint
Description: (§5) In this series of experiments, fungal growth was allowed to cover a painted surface (surface containing 2 coats of the unaltered paint) to a defacement rating of 3-5, forming a ‘contaminated surface’. […] The paint application was extended approximately 1-2 cm beyond the edge of the disc onto the NSA medium. Each formulation used a separate brush to avoid cross contamination. The re-painted discs were placed back into the humid environment with elevated temperature to encourage fungal growth.
(§6) This test was used to evaluate the ability of paint films containing antifungal additives to prevent the re-emergence of fungal growth after painting over existing growth.
(§7) Olympic® Home interior flat latex paint (PPG Industries, Pittsburgh, Pa.) and Valspar® QuikHide White flat interior paint (Valspar Corporation, Minneapolis, Minn.) were used for the experiments in this study unless specified. Stock solutions of the antifungal additives of interest were prepared in reagent grade dimethyl sulfoxide (DMSO; Alfa Aesar, Ward Hill, Mass.). Additives were spiked (by adding appropriate amounts of the antifungal stock solutions) into the liquid paint at specified concentrations. Samples of additive-spiked paint were vigorously mixed with a vortex mixer for at least one minute to insure uniform dispersion of the additive in the paint. […] Studies that used other brands of paint followed the same protocol as described for those using the Olympic® Home interior flat latex paint.
(§8) Test surfaces were prepared in triplicate. In most cases, the tested conditions were repeated on a different date, again in triplicate. […] Two coats of paint were applied with a polyester brush to completely cover both faces of the filter paper disc, allowing at least four hours drying time between coats.
(§9) Nutrient-Salts Agar (NSA) media was prepared according to ASTM method G21-13 in 100×15 mm sterile polystyrene petri dishes (VWR® Radnor, Pa.) with a solidified agar layer from 3 to 6 mm (⅛ to ¼ in.) in depth. The agar was allowed to solidify for at least 24 hours before being used. The painted test filter paper discs were placed in the center of the agar plates in a biosafety hood while wearing clean nitrile gloves.
(§10) The paint coatings were evaluated against three representative fungi: Stachybotrys chartarum, Penicillium chrysogenum, and Alternaria alternata. […] Fungal isolates of Alternaria alternata and Penicillium chrysogenum were obtained from the Plant Pathology and Environmental Microbiology Department at Penn State University.
(§11) A spore suspension of each of these fungi was prepared by pouring a 20-mL portion of autoclaved deionized water containing 0.01% Tween® 20 onto a subculture of each fungal species. Spores were counted with the use of a hemocytometer (Hausser Scientific, Horsham, Pa.) under a microscope. Spore suspensions of Stachybotrys chartarum and Penicillium chrysogenum were diluted to 1×10^6 spores/mL with autoclaved deionized water. Spore suspensions of Alternaria alternata were used “as is” in the range of 200,000 to 400,000 spores/mL.
(§12) Painted test surfaces were inoculated with a spray bottle or with a cotton-tipped applicator. To inoculate the sample with a spray bottle, the spore suspension was sprayed twice on the painted test discs with a spray bottle that delivered approximately 0.14 g of fluid per spray. To inoculate the sample with a cotton-tipped applicator, an autoclaved cotton-tipped applicator was submerged in approximately 400 μL of the inoculum solution and applied evenly over the surface of the painted test surface twice.

Penicillium chrysogenum [7] = assay: as above; format: cell-based; details: painted over fungal growth, +200 μg/mL in Valspar QuikHide paint
Description: as §5, §6, §7, §8, §9, §10, §11, §12

Alternaria alternata [8] = assay: as above; format: cell-based; details: painted over fungal growth, +100 μg/mL in Olympic Home paint
Description: as §5, §6, §7, §8, §9, §10, §11, §12

[9] = Penicillium purpurogenum, 25% PDB

Row | SMILES | 3 day MIC (Stachybotrys chartarum [2]; 25% PDB) [µg/mL] | Solubility in water [5] | Average defacement rating ± standard deviation (Stachybotrys chartarum [6]; 7 days) | Average defacement rating ± standard deviation (Stachybotrys chartarum [6]; 14 days) | Average defacement rating ± standard deviation (Stachybotrys chartarum [6]; 21 days) | Average defacement rating ± standard deviation (Penicillium chrysogenum [7]; 7 days) | Average defacement rating ± standard deviation (Penicillium chrysogenum [7]; 14 days) | Average defacement rating ± standard deviation (Penicillium chrysogenum [7]; 21 days) | Average defacement rating ± standard deviation (Alternaria alternata [8]; 7 days) | Average defacement rating ± standard deviation (Alternaria alternata [8]; 14 days) | Average defacement rating ± standard deviation (Alternaria alternata [8]; 21 days) | further results
1 | CCCCNC(=O)OCC#CI [IPBC, 3-Iodo-2-propynylbutylcarbamate] | 0.8 | 156 mg/L (≈ 555 µM) | 1.2 ± 1.3 (9) | 0.0 ± 0.0 (9) | 0.0 ± 0.0 (9) | 6.9 ± 3.8 (9) | 4.8 ± 4.0 (9) | 3.1 ± 3.4 (9) | 5.9 ± 2.9 (9) | 3.1 ± 2.4 (9) | 3.0 ± 2.5 (9) | 3 day MIC (Penicillium purpurogenum; [9]): <0.1 µg/mL; 3 day MIC ([1]; 25% PDB): 0.4 µg/mL; 3 day MIC (Penicillium corylophilum; 25% PDB): 0.20 µg/mL; 3 day MIC (Penicillium chrysogenum [3]; 25% PDB): 0.2 µg/mL; 3 day MIC (Alternaria alternata [4]; 25% PDB): 0.8 µg/mL
2 | CCCCCCCCn1sccc1=O [OIT, 2-Octyl-4-isothiazolin-3-one] | – | – | 4.6 ± 3.2 (9) | 3.6 ± 3.7 (9) | 3.0 ± 3.7 (9) | 3.6 ± 2.8 (9) | 3.0 ± 3.7 (9) | 2.3 ± 40.0 (9) | 0.3 ± 0.5 (6) | 0.0 ± 0.0 (6) | 0.0 ± 0.0 (6) | MIC (Penicillium purpurogenum; [9]): < 0.1 µg/mL; MIC ([1]; 25% PDB): < 0.1 µg/mL; MIC (Stachybotrys chartarum [2]; 25% PDB): 0.1 µg/mL (≈ 0.469 µM); MIC (Penicillium corylophilum; 25% PDB): < 0.1 µg/mL; MIC (Penicillium chrysogenum [3]; 25% PDB): < 0.1 µg/mL; MIC (Alternaria alternata [4]; 25% PDB): 200 µg/mL (≈ 937 µM)
3 | Oc1cc(Cl)ccc1Oc1ccc(Cl)cc1Cl [Triclosan, triclosan] | <0.1 | 12,000 mg/L | 0.7 ± 1.2 (9) | 0.7 ± 1.2 (9) | 0.6 ± 1.0 (9) | 0.9 ± 2.7 (9) | 0.0 ± 0.0 (9) | 0.0 ± 0.0 (9) | 3.6 ± 3.5 (9) | 2.6 ± 3.7 (9) | 2.0 ± 2.9 (9) | MIC (Penicillium purpurogenum; Penicillium): 3.13 µg/mL (≈ 10.8 µM); MIC [1]: 3.1 µg/mL (≈ 10.7 µM); MIC (Stachybotrys chartarum [2]): < 0.1 µg/mL; MIC (Penicillium corylophilum): 3.13 µg/mL (≈ 10.8 µM); MIC (Penicillium chrysogenum [3]): 6.3 µg/mL (≈ 21.8 µM); MIC (Alternaria alternata [4]): 6.3 µg/mL (≈ 21.8 µM)
